What was measured:
MDR viruses = assay: Antiviral assays, range over MDR viruses; format: cell-based, HIV-1
wild-type viruses = assay: Antiviral assays, range over wild-type viruses; format: cell-based, HIV-1; settings: Human immunodeficiency virus 1, read-out: EC50 against wild-type viruses

For `CC(C)CN(C[C@@H](O)[C@H](Cc1ccccc1)NC(=O)[C@@H]1CN(c2ccccc2)C(=O)O1)S(=O)(=O)c1ccc2ncsc2c1` [15d], the “loss of potency against MDR viruses” value (MDR viruses; relative to wild-type viruses) was “about 6 fold” and the EC50 (wild-type viruses) was 14 to 41 nM.
Work on `CC(=O)c1cccc(N2C[C@@H](C(=O)N[C@@H](Cc3ccccc3)[C@H](O)CN(CC(C)C)S(=O)(=O)c3ccc4ncsc4c3)OC2=O)c1` [26d] yielded an EC50 (wild-type viruses) of 4.2 to 10.1 nM.
`CC(C)CN(C[C@@H](O)[C@H](Cc1ccccc1)NC(=O)[C@@H]1CN(c2cccc(S(C)(=O)=O)c2)C(=O)O1)S(=O)(=O)c1ccc2ncsc2c1` [27d] gave an EC50 (wild-type viruses) of 3.5 to 5.7 nM.
`COC(=O)Nc1cccc(N2C[C@@H](C(=O)N[C@@H](Cc3ccccc3)[C@H](O)CN(CC(C)C)S(=O)(=O)c3ccc4ncsc4c3)OC2=O)c1` [31d] was tested, and the “antiviral potency against the MDR HIV-1 variants, better than LPV” value (MDR viruses; compared with LPV) was 3 fold and the EC50 (wild-type viruses) was 1.2 to 3 nM.
